According to paper PMC7760477 (Nutrients, 2020):
“Also recorded” adds a separate entry of the source.

Key:
[1] = parameters: method as in Pietrzik et al., 2000 unpublished data; conditions: single equimolar dose; 23 women; mean (SD); ref Pietrzik et al., 2000 unpublished data; cited from earlier work
[2] = Indirect comparison of AUCs of plasma (6S)-5-Methyl-THF between the 2019 and 2009 studies; conditions: female, human, in vivo, 451 µg
Protocol: (§1) We used individual data from the two studies to calculate the AUC0–8 h of plasma (6S)-5-Methyl-THF. […] We extrapolated plasma concentrations of (6S)-5-Methyl-THF for the missing time points in the corresponding studies by calculating the mean of the concentrations at the two neighboring time points (=before and after the missing concentrations). […] The incremental AUCs of plasma (6S)-5-Methyl-THF were calculated and were expressed as nmol/L*h.

[3] = 2009 pharmacokinetic study (Prinz-Langenohl et al.): plasma (6S)-5-Methyl-THF by LC-MS-MS after a single oral dose in women; conditions: AUC0-8h of plasma (6S)-5-Methyl-THF; individual ratios; mean (SD)
Protocol: Plasma concentrations of (6S)-5-Methyl-THF were selectively measured in both studies.
as §1
The data analyses were conducted using individual data from the 24 subjects in the present pharmacokinetic study and 21 women (3 women were excluded due to implausible results) from the study of Prinz-Langenohl et al. [13].

[4] = rated as unrelated to the study product
Protocol: On the kinetic days, a permanent venous catheter was inserted in the morning. Blood (8 mL) was collected under fasting conditions (at t0) into EDTA-K^+-containing tubes. […] The study product (1 capsule) was administered with 150 mL water by the study personnel to ensure compliance. […] On each kinetic day, 9 blood samples were collected between t0 and t8 h (8 mL each). The diary records including documentation of adverse events were returned during the last blood collection session after 8 h of the intake.

[5] = Pharmacokinetic study (present, 2019): plasma (6S)-5-Methyl-THF by UPLC-MS/MS after a single oral dose
Protocol: Both folate compounds were provided in odorless gelatin capsules of identical appearance (Apotheke Roter Ochsen AG, Schaffhausen, Switzerland). The label carried a random ID number and the kinetic day 1 and day 2.
The randomization was carried out on kinetic day 1 by means of consecutive numbering and was stratified by sex. On the kinetic days, a permanent venous catheter was inserted in the morning. Blood (8 mL) was collected under fasting conditions (at t0) into EDTA-K^+-containing tubes. […] The study product (1 capsule) was administered with 150 mL water by the study personnel to ensure compliance. A folate-free protein drink (Scandishake® Mix, Nutricia GmbH, Erlangen, Germany) was dissolved in water and served at 1 h, 3 h and 6 h after the product intake. The drink provided 430 kcal per serving. On each kinetic day, 9 blood samples were collected between t0 and t8 h (8 mL each). […]
Plasma total folate levels were measured on the kinetic days by using Cobas autoanalyser (Elecsys®, Roche, Mannheim, Germany) at the Department of Clinical Chemistry, Saarland University Hospital, Germany. […] All plasma samples collected from the same subject (18 samples on both study visits) were prepared and measured in the same run. […]
Incremental areas under the observed concentration-time curve above baseline were calculated applying the trapezoidal rule and were expressed as nmol/L*h.

[6] = Pharmacokinetic study (present, 2019): plasma unmetabolized folic acid by UPLC-MS/MS after a single oral dose; conditions: over 8 h; limit of detection 0.20 nmol/L
Protocol: (§2) The label carried a random ID number and the kinetic day 1 and day 2.
(§3) The randomization was carried out on kinetic day 1 by means of consecutive numbering and was stratified by sex. On the kinetic days, a permanent venous catheter was inserted in the morning. Blood (8 mL) was collected under fasting conditions (at t0) into EDTA-K^+-containing tubes. […] The study product (1 capsule) was administered with 150 mL water by the study personnel to ensure compliance. A folate-free protein drink (Scandishake® Mix, Nutricia GmbH, Erlangen, Germany) was dissolved in water and served at 1 h, 3 h and 6 h after the product intake. The drink provided 430 kcal per serving. On each kinetic day, 9 blood samples were collected between t0 and t8 h (8 mL each). The diary records including documentation of adverse events were returned during the last blood collection session after 8 h of the intake. After a washout period of 2 weeks (only two participants returned at 11 and 17 days) and during the second study visit (kinetic day 2), the other study compound was administered following exactly the same procedure.
(§4) Plasma total folate levels were measured on the kinetic days by using Cobas autoanalyser (Elecsys®, Roche, Mannheim, Germany) at the Department of Clinical Chemistry, Saarland University Hospital, Germany. The CV% of the total folate assay was <6%. All plasma samples collected from the same subject (18 samples on both study visits) were prepared and measured in the same run. All blood samples were primary aliquots frozen at −70 °C for no longer than 3 months.

[7] = clinical; conditions: both, human, in vivo
Protocol: as §2, §3, §4

Row | Structure (SMILES) | Incremental AUC0–8 h of plasma total folate [1] | AUC(0-t) [2] [nM·h] | AUC Ratio: AUCs (6S)-5-Methyl-THF-Ca/ folic acid 2009 [3] | Headaches reported on kinetic day 1 after intake [4] | AUC Ratio: AUCs of (6S)-5-Methyl-THF-Na/ AUC folic acid 2019 ([5]; AUC0-8h of plasma (6S)-5-Methyl-THF, individual ratios, mean (SD)) | Maximum concentrations of plasma (6S)-5-Methyl-THF reached earlier compared to folic acid ([5]; difference of Tmax versus folic acid) [min] | Plasma unmetabolized folic acid levels after intake [6] | concentration at 0.5 h [7] [nM] | concentration at 1 h [7] [nM] | Tmax ([7]; po) [min]
1 | CN1c2c(nc(N)[nH]c2=O)NC[C@@H]1CNc1ccc(C(=O)N[C@@H](CCC(=O)O)C(=O)O)cc1 [(6S)-5-Methyl-THF-Ca, (6S)-5-Methyltetrahydrofolic acid] | 85.0 (21.9) nmol/L*h | 136 | 2.29 (0.76) |  |  |  |  |  |  | 
2 | CN1c2c(nc(N)[nH]c2=O)NC[C@@H]1CNc1ccc(C(=O)N[C@@H](CCC(=O)O)C(=O)O)cc1 [(6S)-5-Methyl-THF-Na, (6S)-5-Methyltetrahydrofolic acid] |  |  |  | Three subjects reported headaches | 2.52 (1.02) | 60 | below the limit of detection; also recorded: remained undetectable |  |  | 
3 | Nc1nc2ncc(CNc3ccc(C(=O)N[C@@H](CCC(=O)O)C(=O)O)cc3)nc2c(=O)[nH]1 [folic acid, pteroylmonoglutamic acid] | 50.3 (20.1) nmol/L*h |  |  |  |  |  |  | 2.5 | 4.7 | 30 to 60
